Source: patent US20200131196A1 (Mount Tam Therapeutics, Inc., priority 2017, published 2020)
Several values for one entry are separate records, joined by “and”; a condition that tells them apart may be missing. Equal values may be shown once. Read-outs that look alike come from different tables or passages of the source.

Tests used:
[1] = Pharmacokinetics in male Sprague Dawley rats (intravenous and oral); type: in vivo, rat; settings: for bioavailability: male, Sprague Dawley, po, 10 mg/kg; for AUC: read-out: AUC 0-infinity_observed
Description: Table 6 provides the pharmacokinetic parameters of Example (I) in male Sprague Dawley rats after a single bolus intravenous dose of 2 mg/kg. Table 7 provides the pharmacokinetic parameters of Example I in male Sprague Dawley rats after a single bolus oral dose of 10 mg/kg. In order to measure bioavailability in vivo, a compound may be administered to a test animal (e.g. mouse or rat) both intraperitoneally (i.p.) or intravenously (i.v.) and orally (p.o.) and blood samples are taken at regular intervals to examine how the plasma concentration of the drug varies over time. The time course of plasma concentration over time can be used to calculate the absolute bioavailability of the compound as a percentage using standard models. An example of a typical protocol is described below. […] The time-course of plasma or whole blood concentrations can then be used to derive key parameters such as the area under the plasma or blood concentration-time curve (AUC-which is directly proportional to the total amount of unchanged drug that reaches the systemic circulation), the maximum (peak) plasma or blood drug concentration, the time at which maximum plasma or blood drug concentration occurs (peak time), additional factors which are used in the accurate determination of bioavailability include: the compound's terminal half-life, total body clearance, steady-state volume of distribution and F %. These parameters are then analyzed by non-compartmental or compartmental methods to give a calculated percentage bioavailability, for an example of this type of method see Gallant-[…] et al, 2000 and […] et al, 1998, and references therein.

[2] = Whole blood concentrations in mice after IP dosing (LC-MS/MS); type: in vivo, mouse; settings: 2 mg/kg IP QD × 3 days; for Formula II Concentrations in Mouse Whole Blood, individual animals: animals 7, 8, 9
Description: Shown below are whole blood concentrations following administration of the compound of Formula II to mice. The compound of Formula II was administered to mice at 2 mg/kg or 10 mg/kg and the concentration of the compound in whole blood determined. These determinations were made using protein precipitation, liquid chromatography (LC), and mass spectrometry (MS/MS). Ten μl aliquots of whole blood and matrix calibration standards were distributed in a 96-well plate; 10 μl aliquots of blank matrix for matrix blanks and control blanks were included as controls. Ten μl of water was added to each sample followed by vortexing. One hundred sixty […] of internal standard was added to each sample except the matrix blanks; 160 μl 70:30 water:acetonitrile (ACN) was added to matrix blanks. This was followed by a […]. One hundred fifty μl of the resultant supernatant was then transferred to a new 96-well plate and the samples blown to dryness at 35° C. The resultant product was then reconstituted with 90 μl ACN.

[3] = male Sprague Dawley rats, single bolus intravenous dose of 2 mg/kg
[4] = male Sprague Dawley rats, single bolus oral dose of 10 mg/kg
[5] = rat, blood, male Sprague Dawley rats, single bolus intravenous dose of 2 mg/kg
[6] = rat, blood, male Sprague Dawley rats, single bolus oral dose of 10 mg/kg

CO[C@H]1C[C@@H]2CC[C@@H](C)[C@@](O)(O2)C(=O)C(=O)N2CCCC[C@H]2C(=O)O[C@H]([C@H](C)C[C@H]2C[C@H]3C[C@@H]2C[C@@H]3O)CC(=O)[C@H](C)/C=C(\C)[C@@H](O)[C@@H](OC)C(=O)[C@H](C)C[C@H](C)/C=C/C=C/C=C/1C [Formula II, C37-[(1R,2S,4R,5S)-5-hyhroxybicyclo[2.2.1]heptane] rapamycin]
AUMC 0-inf_observed [1, 3]: 2358 ng/ml*h^2
Cl_obs [1, 3]: 0.0026 (mg/kg)/(ng/ml)/h
Lambda_z [1, 3]: 0.270 h⁻¹
Vss_obs [1, 3]: 0.00797 (mg/kg)/(ng/ml)
Vz_obs [1, 3]: 0.00963 (mg/kg)/(ng/ml)
AUMC 0-inf_obs [1, 4]: 13410 ng/ml*h^2
Cl/F_obs [1, 4]: 0.0055 (mg/kg)/(ng/ml)/h
Lambda_z [1, 4]: 0.127 h⁻¹
Tlag [1, 4]: 0 h
Vz/F_obs [1, 4]: 0.0433 (mg/kg)/(ng/ml)
bioavailability ([1]; rat, blood, male Sprague Dawley rats, single bolus oral dose of 10 mg/kg, read-out: % F): 47%
bioavailability ([1]; rat, blood, read-out: oral bioavailability): ~47%
AUC(0-t) [1, 5]: 694 ng·h/mL
C0 [1, 5]: 1560 ng/mL
half-life [1, 5]: 2.57 h
AUC [1, 5]: 769 ng·h/mL
Cmax ([1]; rat, blood, male Sprague Dawley rats, single bolus intravenous dose of 2 mg/kg, read-out: Cmax (maximum blood concentration)): 912 ng/mL
MRT ([1]; rat, blood, male Sprague Dawley rats, single bolus intravenous dose of 2 mg/kg, read-out: MRT 0-infinity_observed): 3.06 h
Tmax ([1]; rat, blood, male Sprague Dawley rats, single bolus intravenous dose of 2 mg/kg, read-out: Tmax (time maximum blood conc.)): 0.0333 h
AUC(0-t) [1, 6]: 1720 ng·h/mL
half-life [1, 6]: 5.46 h
AUC [1, 6]: 1820 ng·h/mL
Cmax ([1]; rat, blood, male Sprague Dawley rats, single bolus oral dose of 10 mg/kg, read-out: Cmax): 206 ng/mL
MRT inf ([1]; rat, blood, male Sprague Dawley rats, single bolus oral dose of 10 mg/kg, read-out: MRT 0-inf_obs): 7.37 h
Tmax ([1]; rat, blood, male Sprague Dawley rats, single bolus oral dose of 10 mg/kg, read-out: Tmax): 2 h
Formula II Concentrations in Mouse Whole Blood, Mean ([2]; Day 1, 1.00 hrs): 383 ng/mL
Formula II Concentrations in Mouse Whole Blood, individual animals ([2]; Day 1, 1.00 hrs): 452 ng/mL and 380 ng/mL and 317 ng/mL
Formula II Concentrations in Mouse Whole Blood, Mean ([2]; Day 1, 2.00 hrs): 403 ng/mL
Formula II Concentrations in Mouse Whole Blood, individual animals ([2]; Day 1, 2.00 hrs): 415 ng/mL (2×) and 378 ng/mL
Formula II Concentrations in Mouse Whole Blood, Mean ([2]; Day 1, 6.00 hrs): 464 ng/mL
Formula II Concentrations in Mouse Whole Blood, individual animals ([2]; Day 1, 6.00 hrs): 382 ng/mL and 520 ng/mL and 490 ng/mL
Formula II Concentrations in Mouse Whole Blood, individual animals ([2]; Day 1, 24.0 hrs): 18.4 ng/mL and 14.7 ng/mL
Formula II Concentrations in Mouse Whole Blood, individual animals ([2]; Day 2, 1.00 hrs): 481 ng/mL and 208 ng/mL and 524 ng/mL
Formula II Concentrations in Mouse Whole Blood, individual animals ([2]; Day 2, 2.00 hrs): 501 ng/mL and 233 ng/mL and 570 ng/mL
Formula II Concentrations in Mouse Whole Blood, individual animals ([2]; Day 2, 6.00 hrs): 632 ng/mL and 552 ng/mL
Formula II Concentrations in Mouse Whole Blood, individual animals ([2]; Day 2, 24.0 hrs): 15.3 ng/mL and 80.6 ng/mL and 35.2 ng/mL
Formula II Concentrations in Mouse Whole Blood, Mean ([2]; Day 3, 1.00 hrs): 651 ng/mL
Formula II Concentrations in Mouse Whole Blood, individual animals ([2]; Day 3, 1.00 hrs): 726 ng/mL and 600 ng/mL
Formula II Concentrations in Mouse Whole Blood, Mean ([2]; Day 3, 2.00 hrs): 501 ng/mL
Formula II Concentrations in Mouse Whole Blood, individual animals ([2]; Day 3, 2.00 hrs): 478 ng/mL and 489 ng/mL and 535 ng/mL
Formula II Concentrations in Mouse Whole Blood, Mean ([2]; Day 3, 6.00 hrs): 588 ng/mL
